Test: Human HepG2 cell viability assay in 384 well format
Format: toxicity, cell-based
Design: dose 125 nL, time 70.5 hour; cytotoxicity at 70.5 h: concentration not given beside the values
Conditions: HepG2 cells, read-out: Inhibition
In the case of `O=C1NC2(CCN(C(=O)c3ccc(Cl)cc3)CC2)CC1c1ccccc1` (configuration not stated), the cytotoxicity at 70.5 h is reported as 20.8%. With `O=C(c1ccncc1)N1CCCC1C1CCN(Cc2ccccc2)CC1` (configuration not stated) the cytotoxicity at 70.5 h was 0.737%. `Cc1nnc2n1CC(CNCc1nc(-c3cccs3)no1)CC2` (configuration not stated) showed a cytotoxicity at 70.5 h of 18.6%. In the case of `Cc1noc(C)c1CN(C)C(=O)Cn1c(=O)n(C)c2ccccc21`, the cytotoxicity at 70.5 h is reported as -15.9%. With `CC(C)c1csc(NC(=O)NC2CCCN(c3cnn(C)c3)C2)n1` (configuration not stated) the cytotoxicity at 70.5 h was -7.46%. With `Cc1cc(N2CCC(C(=O)N(C)C)CC2)nc(-c2ccncc2)n1` the cytotoxicity at 70.5 h was 3.79%. In the case of `O=C1NCCN(C(=O)c2cn3ccsc3n2)C1Cc1ccccc1` (configuration not stated), the cytotoxicity at 70.5 h is reported as -5.01%. With `Cc1cc(NC(=O)CN2CCc3cnc(C(C)C)nc3C2)on1` the cytotoxicity at 70.5 h was -1.61%. For `CCn1ccnc1CN(C)CC1CCCN1c1cccnn1` (configuration not stated), the cytotoxicity at 70.5 h was 10%. Work on `COc1ccc(NCc2c[nH]nc2-c2cccnc2)cc1` yielded a cytotoxicity at 70.5 h of 8.67%. Work on `Cc1cnn(CC(=O)N2CCC3(CCC(=O)N(C4CCCC4)C3)CC2)c1` yielded a cytotoxicity at 70.5 h of -2.24%. With `Cc1nn(C)cc1C(=O)N1CCCC(c2nccn2CC2CCC2)C1` (configuration not stated) the cytotoxicity at 70.5 h was -28.4%. Molecule `c1cnc(N2CCC3(CCN(CC4CCOC4)CC3)CC2)nc1` (configuration not stated) has a cytotoxicity at 70.5 h of 1.98%. With `Cc1ccc2oc(SCC(N)=O)nc2n1` the cytotoxicity at 70.5 h was -21.9%. In the case of `COCC(c1cccc(C(F)(F)F)c1)N(C)C(=O)c1ccccn1` (configuration not stated), the cytotoxicity at 70.5 h is reported as -4.66%. For `Cc1ccc(CN2C[C@@H]3[C@@H](C(=O)NCC(C)C)CCS(=O)(=O)[C@@H]3C2)cc1`, the cytotoxicity at 70.5 h was -1.42%. In the case of `O=C1O[C@@H]2CN(Cc3cc4ccccc4o3)C[C@@H]2N1Cc1ccccn1`, the cytotoxicity at 70.5 h is reported as -4.9%. `Cc1noc(CCNC(=O)c2ccc(N(C)C)c(F)c2)n1` gave a cytotoxicity at 70.5 h of -3.5%. Molecule `CCNC(=O)CN(CC)C(=O)c1csc(Cc2ccccc2F)n1` has a cytotoxicity at 70.5 h of -13.1%. Molecule `COCC[C@]1(O)CCN(C(=O)c2cnn(C)c2)C[C@H]1C` has a cytotoxicity at 70.5 h of -0.906%. For `CCCn1[nH]cc/c1=N\C(=O)CN1CCc2c(nc(C(C)C)n2C)C1`, the cytotoxicity at 70.5 h was 18%. With `COc1ccc(Cl)cc1CS(=O)(=O)CC(=O)N(C)Cc1ccccc1F` the cytotoxicity at 70.5 h was -12.1%. Molecule `CCc1cccc(OCCn2cccc(C#N)c2=O)c1` has a cytotoxicity at 70.5 h of -8.55%. Molecule `CCC(Nc1nc(CCN)nc2ccccc12)c1cc(C)ccn1` (configuration not stated) has a cytotoxicity at 70.5 h of -5.71%. With `Cc1nc(CN(CCc2ccccc2)C2CCN(C)CC2)no1` the cytotoxicity at 70.5 h was -10.3%. With `Cc1nc(NC(=O)C(C)S(C)(=O)=O)sc1Cc1ccc(F)cc1` (configuration not stated) the cytotoxicity at 70.5 h was 7.99%. Work on `c1cc(CO[C@H]2CC[C@H]3[C@H]2OCCN3Cc2nccs2)ccn1` yielded a cytotoxicity at 70.5 h of -2.27%. Work on `Cc1noc(C)c1-c1n[nH]c2c1CN(S(=O)(=O)c1cccs1)CC2` yielded a cytotoxicity at 70.5 h of 0.699%. `C[C@H]1C[C@H]2CN(C(=O)CC3CC3)CC[C@H]2O1` showed a cytotoxicity at 70.5 h of -7.47%. For `Cc1cnc(C(=O)N2Cc3cc(Cl)ccc3OC3(CCOCC3)C2)cn1`, the cytotoxicity at 70.5 h was 1.54%. In the case of `COc1ccccc1C1CNCCN1C(C)=O` (configuration not stated), the cytotoxicity at 70.5 h is reported as -15.3%. With `COc1ccc(S(=O)(=O)Nc2cccnc2-n2cncn2)cc1C` the cytotoxicity at 70.5 h was 0.714%. `CCN(Cc1cnn(CC)c1)Cc1c(Cl)cncc1Cl` showed a cytotoxicity at 70.5 h of -2.13%. `CCSc1ccccc1C(=O)NCCN1CCC(c2cccs2)CC1` gave a cytotoxicity at 70.5 h of 4.38%. With `CSc1ccc(OC(C)C(=O)Nc2cc(C)n[nH]2)cc1` (configuration not stated) the cytotoxicity at 70.5 h was -1.12%. Molecule `COc1cc(CN(C)CCc2ccncc2)c(SC)cc1OC` has a cytotoxicity at 70.5 h of -7.73%. With `CC1CCN(c2nccn3c(=O)[nH]nc23)CC1` the cytotoxicity at 70.5 h was -3.79%. `CC(NCc1ccc(OCC(N)=O)cc1)c1ccc(Cl)c(Cl)c1` (configuration not stated) gave a cytotoxicity at 70.5 h of -8.72%. `CCOCCCn1c(NC(=O)c2ccnc(C)n2)nc2ccccc21` showed a cytotoxicity at 70.5 h of 25.9%. In the case of `N#Cc1cccnc1NCCNC(=O)N1CCCC(C(F)(F)F)C1` (configuration not stated), the cytotoxicity at 70.5 h is reported as -11.9%. `Cc1nc(-c2ccc(Cl)cc2)n(CC(=O)NC(C)C)c(=O)c1CCO` showed a cytotoxicity at 70.5 h of -8.99%. For `Cc1ccc(O)c(CNC2CCc3nc(C(C)C)nn3C2)n1` (configuration not stated), the cytotoxicity at 70.5 h was -11.7%. Work on `COc1ccc(CC(=O)N2CCCC2c2nc(C)c(C)c(O)n2)cc1` (configuration not stated) yielded a cytotoxicity at 70.5 h of -2.14%. With `Cc1cnn(CC2CCCN2C(=O)c2csc(C(C)C)n2)c1` (configuration not stated) the cytotoxicity at 70.5 h was 17.5%. With `Fc1ccc(CN2CC[C@H]3O[C@@H](COCc4cccnc4)CC[C@H]32)cc1` the cytotoxicity at 70.5 h was -6.39%. In the case of `Cc1nc(C(=O)N2CCN(S(C)(=O)=O)CC2)c(-c2ccccc2Cl)s1`, the cytotoxicity at 70.5 h is reported as 16%. Work on `O=C(NCCc1c[nH]c2ccccc12)C1CCC(Cn2cnnn2)CC1` (configuration not stated) yielded a cytotoxicity at 70.5 h of 19.8%. `O=C(c1cccnc1)N1CCC[C@]2(C[C@H](Oc3ncccc3F)CO2)C1` showed a cytotoxicity at 70.5 h of 0.397%. Molecule `Cc1cc(C(=O)N(C)S(C)(=O)=O)ccc1F` has a cytotoxicity at 70.5 h of 11.2%. `Cn1ccc2c(C(=O)NCCCN3CCCC3)cccc21` gave a cytotoxicity at 70.5 h of -3.04%. For `CN(C)C(=O)CN1CCC2(CCCN(Cc3cccs3)C2)C1=O` (configuration not stated), the cytotoxicity at 70.5 h was -12.9%. Molecule `CN(Cc1ccc2c(c1)OCCO2)C(=O)Cn1cccnc1=O` has a cytotoxicity at 70.5 h of 3.46%. With `O=C(NCCNc1ccc(C(F)(F)F)cn1)c1ccoc1` the cytotoxicity at 70.5 h was -8.13%. `COCCNC(=O)NC(=O)CNc1c(F)cccc1N1CCCC1` gave a cytotoxicity at 70.5 h of -16.6%. In the case of `O=C(CCS(=O)(=O)C1CCCC1)N1CCCC1c1ccsc1` (configuration not stated), the cytotoxicity at 70.5 h is reported as -4.99%. `CC(CNCc1ccc(Cl)c(Cl)c1)Oc1ccccn1` (configuration not stated) showed a cytotoxicity at 70.5 h of -1.69%. In the case of `Cc1cccc(OCCN2CCN(Cc3noc(C)n3)CC2)c1`, the cytotoxicity at 70.5 h is reported as -2.75%.
